target: Acetylcholinesterase (Homo sapiens, UniProt P22303)
Sequence (P22303 whole entry): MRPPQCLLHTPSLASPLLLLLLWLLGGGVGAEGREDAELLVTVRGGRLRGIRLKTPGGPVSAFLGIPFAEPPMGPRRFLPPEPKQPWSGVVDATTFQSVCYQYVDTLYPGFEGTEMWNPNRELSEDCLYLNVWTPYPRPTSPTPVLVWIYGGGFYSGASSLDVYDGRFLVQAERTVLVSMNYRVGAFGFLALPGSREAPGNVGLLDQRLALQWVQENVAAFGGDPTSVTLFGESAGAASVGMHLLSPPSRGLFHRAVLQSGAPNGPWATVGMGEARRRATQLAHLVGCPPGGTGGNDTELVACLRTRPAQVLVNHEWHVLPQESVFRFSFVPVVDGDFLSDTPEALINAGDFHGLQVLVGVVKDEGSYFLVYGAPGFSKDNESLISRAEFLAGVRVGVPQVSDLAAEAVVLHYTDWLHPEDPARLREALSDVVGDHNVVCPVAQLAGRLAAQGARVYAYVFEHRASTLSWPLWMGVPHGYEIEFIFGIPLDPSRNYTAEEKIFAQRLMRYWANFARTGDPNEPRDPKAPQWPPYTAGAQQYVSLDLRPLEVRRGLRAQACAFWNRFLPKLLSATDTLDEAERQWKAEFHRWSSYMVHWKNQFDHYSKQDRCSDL
Description: Inhibition of human acetylcholinesterase

**Q.** With `O=C(CCC1CCN(Cc2ccccc2)CC1)c1ccc2c(c1)CCCN2` as the molecule, how does the IC50 read?
**A.** Its IC50 is 64.6 nM.

**Q.** With `O=C(CCC1CCN(Cc2ccccc2)CC1)c1ccc2c(c1)NC(c1ccccc1)N2` (stereo not drawn) as the molecule, how does the IC50 read?
**A.** Its IC50 is 33.1 nM.

**Q.** For `O=C(CCC1CCN(Cc2ccccc2)CC1)c1ccc2c(c1)CNCCC2`, which IC50 is on record?
**A.** The IC50 was 22.9 nM.

**Q.** How did the IC50 turn out when `O=C(CCC1CCN(Cc2ccccc2)CC1)c1ccc2c(c1)CCNCC2` was run?
**A.** Its IC50 is 25.1 nM.

**Q.** With `O=C(CCC1CCN(Cc2ccccc2)CC1)c1ccc2c(c1)CNCCO2` as the molecule, how does the IC50 read?
**A.** Its IC50 is 39.8 nM.

**Q.** How did the IC50 turn out when `O=C(CCC1CCN(Cc2ccccc2)CC1)c1cc2c3c(c1)CC(=O)N3CCC2` was run?
**A.** The IC50 was 3.63 nM.

**Q.** With `O=C(CCC1CCN(Cc2ccccc2)CC1)c1cc2c3c(c1)CCN3C(=O)CC2` as the molecule, how does the IC50 read?
**A.** Its IC50 is 9.77 nM.

**Q.** How did the IC50 turn out when `O=C(CCC1CCN(Cc2ccccc2F)CC1)c1cc2c3c(ccn3C(=O)CC2)c1` was run?
**A.** The IC50 was 2.51 nM.

**Q.** For `O=C(CCC1CCN(Cc2cccc(F)c2)CC1)c1cc2c3c(ccn3C(=O)CC2)c1`, which IC50 is on record?
**A.** The IC50 was 1.29 nM.

**Q.** With `O=C(CCC1CCN(Cc2ccccc2Cl)CC1)c1cc2c3c(ccn3C(=O)CC2)c1` as the molecule, how does the IC50 read?
**A.** The IC50 was 5.13 nM.

**Q.** `O=C(CCC1CCN(Cc2cccc(Cl)c2)CC1)c1cc2c3c(ccn3C(=O)CC2)c1` was tested. Which IC50 did it give?
**A.** The IC50 was 4.9 nM.

**Q.** Which IC50 does the source give for `O=C(CCC1CCN(Cc2ccc(Cl)cc2)CC1)c1cc2c3c(ccn3C(=O)CC2)c1` here?
**A.** Its IC50 is 151 nM.

**Q.** `COc1ccccc1CN1CCC(CCC(=O)c2cc3c4c(ccn4C(=O)CC3)c2)CC1` was tested. Which IC50 did it give?
**A.** The IC50 was 64.6 nM.

**Q.** Which IC50 does the source give for `COc1cccc(CN2CCC(CCC(=O)c3cc4c5c(ccn5C(=O)CC4)c3)CC2)c1` here?
**A.** The IC50 was 126 nM.

**Q.** How did the IC50 turn out when `COc1ccc(CN2CCC(CCC(=O)c3cc4c5c(ccn5C(=O)CC4)c3)CC2)cc1` was run?
**A.** The IC50 was 347 nM.

**Q.** With `O=C(CCC1CCN(Cc2ccccc2O)CC1)c1cc2c3c(ccn3C(=O)CC2)c1` as the molecule, how does the IC50 read?
**A.** Its IC50 is 1.1 nM.

**Q.** Which IC50 does the source give for `O=C(CCC1CCN(Cc2cccc(O)c2)CC1)c1cc2c3c(ccn3C(=O)CC2)c1` here?
**A.** The IC50 was 8.71 nM.

**Q.** `O=C(CCC1CCN(Cc2ccccc2[N+](=O)[O-])CC1)c1cc2c3c(ccn3C(=O)CC2)c1` was tested. Which IC50 did it give?
**A.** The IC50 was 89.1 nM.

**Q.** How did the IC50 turn out when `O=C(CCC1CCN(Cc2cccc([N+](=O)[O-])c2)CC1)c1cc2c3c(ccn3C(=O)CC2)c1` was run?
**A.** Its IC50 is 2.88 nM.

**Q.** Which IC50 does the source give for `O=C(CCC1CCN(Cc2ccccc2)CC1)c1cc2c3c(c1)CCC(=O)N3CCC2` here?
**A.** Its IC50 is 15.8 nM.

**Q.** How did the IC50 turn out when `O=C(CCC1CCN(Cc2ccccc2)CC1)c1cc2c3c(c1)CCN3C(=O)CCC2` was run?
**A.** The IC50 was 52.5 nM.

**Q.** With `CS(=O)(=O)Nc1ccc2c(CCC3CCN(Cc4ccccc4)CC3)noc2c1` as the molecule, how does the IC50 read?
**A.** Its IC50 is 14.1 nM.

**Q.** How did the IC50 turn out when `c1ccc(CN2CCC(CCc3noc4cc(C5CCCCC5)ccc34)CC2)cc1` was run?
**A.** The IC50 was 0.794 nM.

**Q.** Which IC50 does the source give for `O=C(CCC1CCN(Cc2ccc(F)cc2)CC1)c1cc2c3c(ccn3C(=O)CC2)c1` here?
**A.** The IC50 was 4.57 nM.

**Q.** For `O=C(CCC1CCN(Cc2ccc(O)cc2)CC1)c1cc2c3c(ccn3C(=O)CC2)c1`, which IC50 is on record?
**A.** The IC50 was 0.49 nM.

**Q.** How did the IC50 turn out when `O=C(CCC1CCN(Cc2ccc([N+](=O)[O-])cc2)CC1)c1cc2c3c(ccn3C(=O)CC2)c1` was run?
**A.** The IC50 was 42.7 nM.

**Q.** For `O=C(CCC1CCN(Cc2ccccc2)CC1)c1ccc2c(c1)NCCC2`, which IC50 is on record?
**A.** Its IC50 is 166 nM.

**Q.** With `O=C(CCC1CCN(Cc2ccccc2)CC1)c1ccc2c(c1)CCN2` as the molecule, how does the IC50 read?
**A.** Its IC50 is 52.5 nM.

From ChEMBL document CHEMBL1649350, “Receptor-dependent (RD) 3D-QSAR approach of a series of benzylpiperidine inhibitors of human acetylcholinesterase (HuAChE)” (Eur J Med Chem, 2011)
